Test results reported in patent US9580390B2, “Indazole compounds as kinase inhibitors and method of treating cancer with same” (University Health Network, priority 2011, dated 2017).

What follows are molecules tested on colon cancer cells (HCT116) (assay: Cancer cell line growth inhibition (SRB assay)). Details: Homo sapiens, HCT-116; HCT116 colon cancer cells, SRB assay; read-out: Cancer Cell Line GI50 Range HCT116.
Type: cell-based

Row | GI50 [nM] | SMILES
1 | > 500 | O=C(Nc1ccc2[nH]nc(-c3cccc(CN4CCOCC4)c3)c2c1)C(c1ccsc1)N1CCCC1 (centres unmarked) [Example A1, N-(3-(3-(morpholinomethyl)phenyl)-1H-indazol-5-yl)-2-(pyrrolidin-1-yl)-2-(thiophen-3-yl)acetamide]
2 | < 100 | CN1CCN(c2ccc(-c3n[nH]c4ccc(NC(=O)C(c5ccsc5)N5CCCC5)cc34)cc2)CC1 (centres unmarked) [Example A2, N-(3-(4-(4-methylpiperazin-1-yl)phenyl)-1H-indazol-5-yl)-2-(pyrrolidin-1-yl)-2-(thiophen-3-yl)acetamide]
3 | 100 to 500 | O=C(Nc1ccc2[nH]nc(-c3ccc(CN4CCOCC4)cc3)c2c1)C(c1ccsc1)N1CCCC1 (centres unmarked) [Example A3, N-(3-(4-(morpholinomethyl)phenyl)-1H-indazol-5-yl)-2-(pyrrolidin-1-yl)-2-(thiophen-3-yl)acetamide]
4 | < 100 | CN(C)CCOc1ccc(-c2n[nH]c3ccc(NC(=O)C(c4ccsc4)N4CCCC4)cc23)cc1 (centres unmarked) [Example A5, N-(3-(4-(2-(dimethylamino)ethoxy)phenyl)-1H-indazol-5-yl)-2-(pyrrolidin-1-yl)-2-(thiophen-3-yl)acetamide]
5 | 100 to 500 | O=C(Nc1ccc2[nH]nc(-c3ccc(CCN4CCOCC4)cc3)c2c1)C(c1ccsc1)N1CCCC1 (centres unmarked) [Example A6, N-(3-(4-(2-morpholinoethyl)phenyl)-1H-indazol-5-yl)-2-(pyrrolidin-1-yl)-2-(thiophen-3-yl)acetamide]
6 | < 100 | COc1cc(-c2n[nH]c3ccc(NC(=O)C(c4ccsc4)N4CCCC4)cc23)ccc1OC1CCNCC1 (centres unmarked) [Example A8, N-(3-(3-methoxy-4-(piperidin-4-yloxy)phenyl)-1H-indazol-5-yl)-2-(pyrrolidin-1-yl)-2-(thiophen-3-yl)acetamide]
7 | 100 to 500 | COc1cc(-c2n[nH]c3ccc(NC(=O)C(c4ccsc4)N4CCCC4)cc23)ccc1N1CCN(C)CC1 (centres unmarked) [Example A10, N-(3-(3-methoxy-4-(4-methylpiperazin-1-yl)phenyl)-1H-indazol-5-yl)-2-(pyrrolidin-1-yl)-2-(thiophen-3-yl)acetamide]
8 | 100 to 500 | CN1CCN(c2ccc(-c3n[nH]c4ccc(NC(=O)C5CCCc6ccccc65)cc34)cc2)CC1 (centres unmarked) [Example A11, N-(3-(4-(4-methylpiperazin-1-yl)phenyl)-1H-indazol-5-yl)-1,2,3,4-tetrahydronaphthalene-1-carboxamide]
9 | 100 to 500 | COc1cc(-c2n[nH]c3ccc(C(=O)NC(c4ccccc4)C4CC4)cc23)ccc1OC1CCNCC1 (centres unmarked) [Example A13, N-(cyclopropyl(phenyl)methyl)-3-(3-methoxy-4-(piperidin-4-yloxy)phenyl)-1H-indazole-5-carboxamide]
10 | 100 to 500 | CN1CCc2cc(-c3n[nH]c4ccc(NC(=O)C(c5ccsc5)N5CCCC5)cc34)ccc21 (centres unmarked) [Example A16, N-(3-(1-methylindolin-5-yl)-1H-indazol-5-yl)-2-(pyrrolidin-1-yl)-2-(thiophen-3-yl)acetamide]
11 | > 500 | CN1CCOc2cc(-c3n[nH]c4ccc(NC(=O)C(c5ccsc5)N5CCCC5)cc34)ccc21 (centres unmarked) [Example A17, N-(3-(4-methyl-3,4-dihydro-2H-benzo[b][1,4]oxazin-7-yl)-1H-indazol-5-yl)-2-(pyrrolidin-1-yl)-2-(thiophen-3-yl)acetamide]
12 | 100 to 500 | COc1cc(-c2n[nH]c3ccc(C(=O)NC(c4ccccc4)C4CC4)cc23)ccc1OC1CCN(C)CC1 (centres unmarked) [Example A19, N-(cyclopropyl(phenyl)methyl)-3-(3-methoxy-4-((1-methylpiperidin-4-yl)oxy)phenyl)-1H-indazole-5-carboxamide]
13 | 100 to 500 | O=C(Nc1ccc2[nH]nc(-c3ccc4c(c3)OCCCO4)c2c1)C(c1ccsc1)N1CCCC1 (centres unmarked) [Example A20, N-(3-(3,4-dihydro-2H-benzo[b][1,4]dioxepin-7-yl)-1H-indazol-5-yl)-2-(pyrrolidin-1-yl)-2-(thiophen-3-yl)acetamide]
14 | < 100 | COc1cc(-c2n[nH]c3ccc(NC(=O)C(c4ccsc4)N4CCCC4)cc23)ccc1OC1CCN(C)CC1 (centres unmarked) [Example A21, N-(3-(3-methoxy-4-((1-methylpiperidin-4-yl)oxy)phenyl)-1H -indazol-5-yl)-2-(pyrrolidin-1-yl)-2-(thiophen-3-yl)acetamide]
15 | 100 to 500 | O=C(Nc1ccc2[nH]nc(-c3ccc(N4CCOCC4)cc3)c2c1)C1CCCc2ccccc21 (centres unmarked) [Example A22, N-(3-(4-morpholinophenyl)-1H-indazol-5-yl)-1,2,3,4-tetrahydronaphthalene-1-carboxamide]
16 | 100 to 500 | CN1CCC(Oc2ccc(-c3n[nH]c4ccc(C(=O)N[C@@H]5CCCc6ccccc65)cc34)cc2)CC1 [Example A26, (R)-3-(4-((1-methylpiperidin-4-yl)oxy)phenyl)-N-(1,2,3,4-tetrahydronaphthalen-1-yl)-1H-indazole-5-carboxamide]
17 | < 100 | O=C(Nc1ccc2[nH]nc(-c3ccc(OC4CCNCC4)cc3)c2c1)C(c1ccsc1)N1CCCC1 (centres unmarked) [Example A28, N-(3-(4-(piperidin-4-yloxy)phenyl)-1H-indazol-5-yl)-2-(pyrrolidin-1-yl)-2-(thiophen-3-yl)acetamide]
18 | < 100 | CC(C)N1CCC(Oc2ccc(-c3n[nH]c4ccc(NC(=O)C(c5ccsc5)N5CCCC5)cc34)cc2)CC1 (centres unmarked) [Example A30, N-(3-(4-((1-isopropylpiperidin-4-yl)oxy)phenyl)-1H-indazol-5-yl)-2-(pyrrolidin-1-yl)-2-(thiophen-3-yl)acetamide]

Row | GI50 [nM] | SMILES
19 | < 100 | CN1CCC(Oc2ccc(-c3n[nH]c4ccc(NC(=O)C(c5ccsc5)N5CCCCC5)cc34)cc2)CC1 (centres unmarked) [Example A31, N-(3-(4-((1-methylpiperidin-4-yl)oxy)phenyl)-1H-indazol-5-yl)-2-(piperidin-1-yl)-2-(thiophen-3-yl)acetamide]
20 | < 100 | O=C(Nc1ccc2[nH]nc(-c3ccc(N4CCOCC4)cc3)c2c1)C(c1ccsc1)N1CCCCC1 (centres unmarked) [Example A32, N-(3-(4-morpholinophenyl)-1H-indazol-5-yl)-2-(piperidin-1-yl)-2-(thiophen-3-yl)acetamide]
21 | < 100 | CN1CCC(Oc2ccc(-c3n[nH]c4ccc(NC(=O)C(c5ccsc5)C5CCCC5)cc34)cc2)CC1 (centres unmarked) [Example A36, 2-cyclopentyl-N-(3-(4-((1-methylpiperidin-4-yl)oxy)phenyl)-1H-indazol-5-yl)-2-(thiophen-3-yl)acetamide]
22 | < 100 | COC(C(=O)Nc1ccc2[nH]nc(-c3ccc(OC4CCN(C)CC4)cc3)c2c1)c1ccsc1 (centres unmarked) [Example A37, 2-methoxy-N-(3-(4-((1-methylpiperidin-4-yl)oxy)phenyl)-1H-indazol-5-yl)-2-(thiophen-3-yl)acetamide]
23 | < 100 | C[C@H](NC(=O)c1ccc2[nH]nc(-c3ccc(OC4CCN(C)CC4)cc3)c2c1)C1CCCCC1 [Example A38, (S)-N-(1-cyclohexylethyl)-3-(4-((1-methylpiperidin-4-yl)oxy)phenyl)-1H-indazole-5-carboxamide]
24 | < 100 | CN1CCC(Oc2ccc(-c3n[nH]c4ccc(NC(=O)C5c6ccccc6CCN5C)cc34)cc2)CC1 (centres unmarked) [Example A39, 2-methyl-N-(3-(4-((1-methylpiperidin-4-yl)oxy)phenyl)-1H -indazol-5-yl)-1,2,3,4-tetrahydroisoquinoline-1-carboxamide]
25 | 100 to 500 | C[C@H](NC(=O)c1ccc2[nH]nc(-c3ccc(N4CCOCC4)cc3)c2c1)C1CCCCC1 [Example A40, (S)-N-(1-cyclohexylethyl)-3-(4-morpholinophenyl)-1H-indazole-5-carboxamide]
26 | < 100 | CN(C)CCCOc1ccc(-c2n[nH]c3ccc(NC(=O)C(c4ccsc4)N4CCCC4)cc23)cc1 (centres unmarked) [Example A43, N-(3-(4-(3-(dimethylamino)propoxy)phenyl)-1H-indazol-5-yl)-2-(pyrrolidin-1-yl)-2-(thiophen-3-yl)acetamide]
27 | < 100 | O=C(Nc1ccc2[nH]nc(-c3ccc(OCCN4CCCC4)cc3)c2c1)C(c1ccsc1)N1CCCC1 (centres unmarked) [Example A44, 2-(pyrrolidin-1-yl)-N-(3-(4-(2-(pyrrolidin-1-yl)ethoxy)phenyl)-1H-indazol-5-yl)-2-(thiophen-3-yl)acetamideamide]
28 | 100 to 500 | C[C@H]1CCCN1[C@H](C(=O)Nc1ccc2[nH]nc(-c3ccc(N4CCOCC4)cc3)c2c1)c1ccsc1 [Example A47, (S)-2-((S)-2-methylpyrrolidin-1-yl)-N-(3-(4-morpholinophenyl)-1H-indazol-5-yl)-2-(thiophen-3-yl)acetamide]
29 | > 500 | C[C@@H](NC(=O)c1ccc2[nH]nc(-c3ccc(N4CCOCC4)cc3)c2c1)C1CCCCC1 [Example A48, (R)-N-(1-cyclohexylethyl)-3-(4-morpholinophenyl)-1H-indazole-5-carboxamide]
30 | 100 to 500 | O=C(N[C@H](c1ccccc1)C1CC1)c1ccc2[nH]nc(-c3ccc(N4CCOCC4)cc3)c2c1 [Example A49, (S)-N-(cyclopropyl(phenyl)methyl)-3-(4-morpholinophenyl)-1H-indazole-5-carboxamide]
31 | 100 to 500 | O=C(N[C@@H](c1ccccc1)C1CC1)c1ccc2[nH]nc(-c3ccc(N4CCOCC4)cc3)c2c1 [Example A51, (R)-N-(cyclopropyl(phenyl)methyl)-3-(4-morpholinophenyl)-1H-indazole-5-carboxamide]
32 | 100 to 500 | C[C@@H](NC(=O)c1ccc2[nH]nc(-c3ccc(N4CCOCC4)cc3)c2c1)c1cccs1 [Example A53, (R)-3-(4-morpholinophenyl)-N-(1-(thiophen-2-yl)ethyl)-1H-indazole-5-carboxamide]
33 | < 100 | C[C@@H](NC(=O)c1ccc2[nH]nc(-c3ccc(OC4CCN(C)CC4)cc3)c2c1)c1cccs1 [Example A55, (R)-3-(4-((1-methylpiperidin-4-yl)oxy)phenyl)-N-(1-(thiophen-2-yl)ethyl)-1H-indazole-5-carboxamide]
34 | 100 to 500 | CC[C@@H](NC(=O)c1ccc2[nH]nc(-c3ccc(N4CCOCC4)cc3)c2c1)c1cccs1 [Example A58, (R)-3-(4-morpholinophenyl)-N-(1-(thiophen-2-yl)propyl)-1H-indazole-5-carboxamide]
35 | > 500 | CN1CCC(Oc2ccc(-c3n[nH]c4ccc(NC(=O)Nc5ccccc5Cl)cc34)cc2)CC1 [Example A62, 1-(2-chlorophenyl)-3-(3-(4-((1-methylpiperidin-4-yl)oxy)phenyl)-1H-indazol-5-yl)urea]
